In ChEMBL document CHEMBL4419178, “Yap1 inhibitors that target the interaction of yap1 with oct4” (2018):
Activity calls are given as the source filed them.

Legend:
[1] = target: Transcriptional coactivator YAP1 (Homo sapiens) (UniProt P46937); test: Inhibition of YAP1 in human A549 cells assessed as reduction in Sox2 protein expression at 5 uM by Western blot analysis; type: cell-based
[2] = target: Transcriptional coactivator YAP1 (Homo sapiens) (UniProt P46937); test: Inhibition of YAP1 in human A549 cells assessed as suppression of IL13 level by cytokine array assay; type: cell-based
[3] = target: Transcriptional coactivator YAP1 (Homo sapiens) (UniProt P46937); test: Inhibition of YAP1 in human A549 cells assessed as suppression of CXCL12 level in presence of cancer associated fibroblasts by cytokine array assay; type: cell-based
[4] = target: Transcriptional coactivator YAP1 (Homo sapiens) (UniProt P46937); test: Inhibition of YAP1 in human A549 cells assessed as suppression of CXCL1 level by cytokine array assay; type: cell-based
[5] = target: Transcriptional coactivator YAP1 (Homo sapiens) (UniProt P46937); test: Inhibition of YAP1 in human A549 cells assessed as suppression of CCL2 level by cytokine array assay; type: cell-based
[6] = target: Transcriptional coactivator YAP1 (Homo sapiens) (UniProt P46937); test: Inhibition of YAP1 in human A549 cells assessed as suppression of MIF level by cytokine array assay; type: cell-based
[7] = target: Transcriptional coactivator YAP1 (Homo sapiens) (UniProt P46937); test: Inhibition of YAP1 in human A549 cells assessed as suppression of CD40L level by cytokine array assay; type: cell-based
[8] = target: Transcriptional coactivator YAP1 (Homo sapiens) (UniProt P46937); test: Inhibition of YAP1 in human NCI-H1650 cells assessed as reduction in Sox2 protein expression at 5 uM by Western blot analysis; type: cell-based
[9] = target: Transcriptional coactivator YAP1 (Homo sapiens) (UniProt P46937); test: Inhibition of YAP1 in human A549 cells assessed as suppression of IL32-alpha level by cytokine array assay; type: cell-based
[10] = target: Transcriptional coactivator YAP1 (Homo sapiens) (UniProt P46937); test: Inhibition of YAP1 in human A549 cells assessed as suppression of IL8 level in presence of cancer associated fibroblasts by cytokine array assay; type: cell-based
[11] = target: Transcriptional coactivator YAP1 (Homo sapiens) (UniProt P46937); test: Inhibition of YAP1 in human A549 cells assessed as suppression of Serpine-E1 level in presence of cancer associated fibroblasts by cytokine array assay; type: cell-based
[12] = target: Transcriptional coactivator YAP1 (Homo sapiens) (UniProt P46937); test: Inhibition of YAP1 in human A549 cells assessed as suppression of MIF level in presence of cancer associated fibroblasts by cytokine array assay; type: cell-based
[13] = target: Transcriptional coactivator YAP1 (Homo sapiens) (UniProt P46937); test: Inhibition of YAP1 in human A549 cells assessed as suppression of ICAM1 level in presence of cancer associated fibroblasts by cytokine array assay; type: cell-based
[14] = target: Transcriptional coactivator YAP1 (Homo sapiens) (UniProt P46937); test: Inhibition of YAP1 in human A549 cells assessed as suppression of Serpine-E1 level by cytokine array assay; type: cell-based
[15] = target: Transcriptional coactivator YAP1 (Homo sapiens) (UniProt P46937); test: Inhibition of YAP1 in human A549 cells assessed as suppression of IL1alpha level by cytokine array assay; type: cell-based
[16] = target: Transcriptional coactivator YAP1 (Homo sapiens) (UniProt P46937); test: Inhibition of YAP1 in human A549 cells assessed as suppression of IL18 level by cytokine array assay; type: cell-based
[17] = target: Transcriptional coactivator YAP1 (Homo sapiens) (UniProt P46937); test: Inhibition of YAP1 in human A549 cells assessed as suppression of IL8 level by cytokine array assay; type: cell-based
[18] = target: Transcriptional coactivator YAP1 (Homo sapiens) (UniProt P46937); test: Inhibition of YAP1 in human A549 cells assessed as suppression of CCL2 level in presence of cancer associated fibroblasts by cytokine array assay; type: cell-based
[19] = target: Transcriptional coactivator YAP1 (Homo sapiens) (UniProt P46937); test: Inhibition of YAP1 in human A549 cells assessed as suppression of CXCL12 level by cytokine array assay; type: cell-based
[20] = target: Transcriptional coactivator YAP1 (Homo sapiens) (UniProt P46937); test: Inhibition of YAP1 in human A549 cells assessed as suppression of IL6 level by cytokine array assay; type: cell-based
[21] = target: Transcriptional coactivator YAP1 (Homo sapiens) (UniProt P46937); test: Inhibition of YAP1 in human A549 cells assessed as suppression of ICAM1 level by cytokine array assay; type: cell-based
[22] = target: Transcriptional coactivator YAP1 (Homo sapiens) (UniProt P46937); test: Inhibition of YAP1 in human A549 cells assessed as suppression of IL6 level in presence of cancer associated fibroblasts by cytokine array assay; type: cell-based
[23] = target: Transcriptional coactivator YAP1 (Homo sapiens) (UniProt P46937); test: Inhibition of YAP1 in human NCI-H1650 cells assessed as suppression of PDK2 mRNA expression at 5 to 10 uM incubated for 72 hrs by RT-PCR method; type: cell-based
[24] = target: Transcriptional coactivator YAP1 (Homo sapiens) (UniProt P46937); test: Inhibition of YAP1 in human NCI-H1650 cells assessed as suppression of HK2 mRNA expression at 5 to 10 uM incubated for 72 hrs by RT-PCR method; type: cell-based
[25] = target: Transcriptional coactivator YAP1 (Homo sapiens) (UniProt P46937); test: Inhibition of YAP1 in human NCI-H1703 cells assessed as suppression of HK2 mRNA expression at 5 to 10 uM incubated for 72 hrs by RT-PCR method; type: cell-based
[26] = target: Transcriptional coactivator YAP1 (Homo sapiens) (UniProt P46937); test: Inhibition of YAP1 in human NCI-H1703 cells assessed as suppression of PDK2 mRNA expression at 5 to 10 uM incubated for 72 hrs by RT-PCR method; type: cell-based
[27] = target: Transcriptional coactivator YAP1 (Homo sapiens) (UniProt P46937); test: Inhibition of YAP1 in human NCI-H1703 cells assessed as suppression of PD-L1 mRNA expression at 5 to 10 uM incubated for 72 hrs by RT-PCR method; type: cell-based
[28] = target: Transcriptional coactivator YAP1 (Homo sapiens) (UniProt P46937); test: Inhibition of YAP1 in human NCI-H146 cells assessed as suppression of HK2 mRNA expression at 5 to 10 uM incubated for 72 hrs by RT-PCR method; type: cell-based
[29] = target: Transcriptional coactivator YAP1 (Homo sapiens) (UniProt P46937); test: Inhibition of YAP1 in human NCI-H1650 cells assessed as suppression of PD-L1 mRNA expression at 5 to 10 uM incubated for 72 hrs by RT-PCR method; type: cell-based
NCI-H1650 = test: Inhibition of self-renewal capacity in cisplatin insensitive stem-like side-population cells of human NCI-H1650 cells assessed as reduction in number of spheres at 2 uM incubated for 5 days after 7 days cisplatin exposure by sphere formation assay; type: functional, cell-based
[30] = target: Transcriptional coactivator YAP1 (Homo sapiens) (UniProt P46937); test: Inhibition of YAP1 in human NCI-H146 cells assessed as suppression of PDK2 mRNA expression at 5 to 10 uM incubated for 72 hrs by RT-PCR method; type: cell-based

Measured: inhibition

Sequence of Transcriptional coactivator YAP1 (Homo sapiens) (P46937 whole entry): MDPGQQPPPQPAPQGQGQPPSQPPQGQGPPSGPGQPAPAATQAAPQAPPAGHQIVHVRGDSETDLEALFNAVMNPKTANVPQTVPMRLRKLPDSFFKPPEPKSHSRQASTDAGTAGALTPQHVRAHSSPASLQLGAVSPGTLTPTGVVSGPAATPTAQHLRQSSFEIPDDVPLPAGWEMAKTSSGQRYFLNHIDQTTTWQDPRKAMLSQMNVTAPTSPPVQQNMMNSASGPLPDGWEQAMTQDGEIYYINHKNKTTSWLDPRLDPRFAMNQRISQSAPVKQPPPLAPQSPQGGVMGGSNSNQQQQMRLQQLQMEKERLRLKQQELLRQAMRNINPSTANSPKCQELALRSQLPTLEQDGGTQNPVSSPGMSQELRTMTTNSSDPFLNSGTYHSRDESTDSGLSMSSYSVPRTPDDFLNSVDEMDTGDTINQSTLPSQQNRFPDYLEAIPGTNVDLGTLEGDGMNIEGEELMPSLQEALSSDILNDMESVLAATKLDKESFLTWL

COC(=O)[C@H](Cc1ccc(OCc2ccccc2)cc1)NC(=O)CC1CCN(C(=O)CCc2ccc(C#N)cc2)CC1
active: [1] | [2] | [3] | [4] | [5] | [6] | [7] | [8] | [9] | [10] | [11] | [12] | [13] | [14] | [15] | [16] | [17] | [18] | [19] | [20] | [21] | [22]

COC(=O)[C@H](Cc1ccc(OCc2ccccc2)cc1)NC(=O)CC1CCN(C(=O)CCc2ccc(Cl)c(Cl)c2)CC1
active: [23] | [24] | [25] | [26] | [27] | [28] | [29] | NCI-H1650 | [30]
